Data published in patent US11685900B2, “Nanofiber-based long-term primary hepatocyte three-dimensional culture system and culturing method” (NANOFAENTECH CO., LTD., priority 2017, dated 2023).

System: primary hepatocytes
Conditions: mouse, 24 h
Description: Fifty μL of the sample to be quantified and 100 μL of acetonitrile were mixed, centrifuged at 14000 rpm for 10 minutes and the obtained supernatant (130 μL) was dried in nitrogen gas and was dissolved in a solution (10 mM potassium phosphate:acetonitrile, 65%:35% (v/v)) and measured by HPLC (Shimazu Prominence LC-20A) at flow rate of 1 mL/min and at an absorbance of 245 nm for 10 minutes.

decrease of the drug administered (50 μM): 75-85%
concentration of phenacetin detected in the culture (500 μM): 350 to 400 µM
concentration of phenacetin detected in the culture medium (500 μM): 350 µM
concentration of phenacetin measured in the culture (500 μM): about 200 μM
SMILES: CCOc1ccc(NC(C)=O)cc1 [phenacetin]
